Legend:
[1] = Inhibition of HCV recombinant NS5B polymerase; design: species or system Hepacivirus hominis
Hepatitis C virus = assay: Antiviral activity against Hepatitis C virus by cell based replicon assay; assay type: functional, organism-based, Hepacivirus hominis

| Compound | IC50 [1] | EC50 (Hepatitis C virus) |
| --- | --- | --- |
| COc1cccc(Nc2snc(O)c2C#N)c1 | > 100000 nM | – |
| N#Cc1c(O)nsc1Nc1cc(Cl)cc(Cl)c1 | 200 nM | 100 nM |
| Cc1cc(C)cc(Nc2snc(O)c2C#N)c1 | > 100000 nM | – |
| N#Cc1c(O)nsc1Nc1cc(Br)cc(C(F)(F)F)c1 | 300 nM | – |
| COC(=O)c1ccc(-c2ccc(Cl)cc2Nc2snc(O)c2C#N)o1 | 1800 nM | – |
| N#Cc1c(O)nsc1Nc1cccc(F)c1 | 900 nM | 2900 nM |
| N#Cc1c(O)nsc1Nc1cc(F)cc(F)c1 | 300 nM | 220 nM |
| N#Cc1c(O)nsc1Nc1ccccc1Oc1ccccc1 | 1300 nM | – |
| CCCCS(=O)(=O)c1cccc(Nc2snc(O)c2C#N)c1 | 8300 nM | – |
| N#Cc1c(O)nsc1Nc1cc(F)ccc1Oc1ccccc1 | 500 nM | 3400 nM |
| COC(=O)c1ccc(Cl)cc1Nc1snc(O)c1C#N | 4700 nM | – |
| N#Cc1c(O)nsc1Nc1ccc(I)cc1 | 1200 nM | 1100 nM |
| N#Cc1c(O)nsc1Nc1ccc(F)cc1 | 1200 nM | – |
| N#Cc1c(O)nsc1Nc1cc(Cl)ccc1OCc1ccc2ccccc2c1 | 6400 nM | – |
| N#Cc1c(O)noc1Nc1cc(Br)cc(Br)c1 | 33000 nM | – |
| N#Cc1c(O)nsc1Nc1nc2ccc(F)cc2s1 | 44000 nM | – |
| N#Cc1c(O)nsc1Nc1cccc(S(N)(=O)=O)c1 | 9700 nM | – |
| N#Cc1c(O)nsc1Nc1cccc(S(=O)(=O)NC23CC4CC(CC(C4)C2)C3)c1 | 1400 nM | – |
| N#Cc1c(O)nsc1Nc1cc(Cl)cc(S(=O)(=O)NC23CC4CC(CC(C4)C2)C3)c1 | 1800 nM | – |
| N#Cc1c(O)nsc1Nc1ccc(Cl)cc1Cl | 700 nM | – |
| N#Cc1c(O)nsc1Nc1cc(C(F)(F)F)cc(C(F)(F)F)c1 | 5900 nM | 2000 nM |
| N#Cc1c(O)nsc1Nc1cc(C(F)(F)F)cc(S(=O)(=O)NC23CC4CC(CC(C4)C2)C3)c1 | 3500 nM | – |
| N#Cc1c(O)nsc1Nc1cc(Br)ccc1OCc1ccccc1 | 300 nM | – |
| N#Cc1c(O)nsc1Nc1cc(Cl)ccc1OCc1ccccc1 | 1000 nM | – |
| COC(=O)c1cc(Nc2snc(O)c2C#N)cc(C(F)(F)F)c1 | 2000 nM | – |
| N#Cc1c(O)nsc1Nc1cc(C(=O)O)cc(C(F)(F)F)c1 | 1500 nM | – |
| CS(=O)(=O)c1cccc(Nc2snc(O)c2C#N)c1 | 9700 nM | – |
| N#Cc1c(O)nsc1Nc1cc(Br)ccc1OCc1ccc2ccccc2c1 | 1700 nM | – |
